How the values were obtained:
[1] = Settling test of redispersed aqueous silver chloride/gelatin dispersion (silver assay of top samples); type: physicochemical; conditions: redispersal and testing after storage at 40° C. for 5 days
Method: Samples were analyzed for silver content using an Automated Thioacetamide Titration system (ATT) to assay silver ion (Ag^+) present in silver containing compounds by a potentiometric titration. Silver chloride grains, which have been solubilized in a solution of thiosulfate, sodium hydroxide and gelatin, are titrated with thioacetamide to precipitate silver sulfide. The end-point of the titration is monitored potentiometrically using a silver sulfide-coated silver billet indicator electrode.
[…] To test for settling, the stirring was stopped and a 10 ml portion was removed from the top of the aliquot (time=0 sample).
Additional samples were taken in a similar manner from the unstirred aliquot at 10 minute, 30 minute, and 60 minute intervals. By comparing the theoretical silver chloride concentration (measured on a sample taken from the vigorously stirred dispersion at the conclusion of the precipitation), assuming a perfectly dispersed solution, with that determined by the ATT assay for each sample taken from the top of the aliquot, it is possible to determine the amount of AgCl product that had settled in a given time interval.
The following TABLE I contains the settling data for Invention Examples 1-7 and Comparative Examples 1-10. The settling is evaluated by comparing the silver assay results for samples taken from the top of the aliquot at time=0 or later, to the theoretical silver concentration, such that percent settle is defined by the expression (Theoretical [Ag]−Silver Assay(time))/(Theoretical [Ag]))×100.

Excerpt for pKa of additive: The storage stability additives used in the compositions of this invention are N-heterocyclic acids each having a pKa of from about 4 to about 9 or from about 4.5 to about 8.5, or from about 4.8 to about 8.0.

Effectiveness of additive in reducing settling [1] | pKa (pKa of additive) | Molecule | Additive pKa (pKa of additive)
ineffective | 3.3 | CC(=O)Nc1cccc(-n2[nH]nnc2=S)c1 [APMT, acetamide, N-(3-(2,5-dihydro-5-thioxo-1H-tetrazol-1-yl)phenyl)-, reference compound] | –
remarkably effective | 4.8 | Cc1nc2ncnn2c(O)c1Br [Br-TAI, (1,2,4)triazolo(1,5-a)pyrimidin-7-ol, 6-bromo-5-methyl-] | –
remarkably effective | 6 | O=[N+]([O-])c1cc(Cl)cc2[nH]nnc12 [CN-BZT, 6-chloro-4-nitro-1H-benzotriazole] | –
remarkably effective | 6.2 | CSc1nc2nc(C)cc(O)n2n1 [SMe-TAI, (1,2,4)triazolo(1,5-a)pyrimidin-7-ol, 5-methyl-2-(methylthio)-] | –
ineffective | 9.4 | O=C1CCC(=O)N1 [Succinimide, succinimide, reference compound] | –
remarkably effective | 6.2 | Cc1cc(O)n2ncnc2n1.[Na] [TAI, (1,2,4)triazolo(1,5-a)pyrimidin-7-ol, 5-methyl-, sodium salt] | –
ineffective | 9.2 | O=c1cc[nH]c(=O)[nH]1 [Uracil, uracil, reference compound] | –
remarkably effective | 5.8 | O=c1[nH][nH]c(=O)[nH]1 [Urazole, urazole] | –
remarkably effective | 5.8 | O=c1[nH]c(=O)c2[nH]c(=O)[nH]c2[nH]1 [Uric acid, uric acid] | –

Molecule | Effectiveness of additive in reducing settling [1] | pKa (pKa of additive) | Additive pKa (pKa of additive)
O=C1NS(=O)(=O)c2ccccc21 [Saccharin, saccharin, reference compound] | ineffective | 1.8 | 1.8
methyl-1H-benzotriazole [Me-BZT] | remarkably effective | – | –
